{
  "source": "patent US12122741B2",
  "about": "“Therapeutic phenethylamine compositions and methods of use” (CYBIN IRL LIMITED, priority 2020, dated 2024)",
  "key": {"[1]": {"assay": "in vitro liver metabolism (metabolic stability)", "format": "in vitro ADME", "details": "rat liver microsomes, NADPH regenerating system, 0 to 60 min", "description": "In Vitro Liver Metabolism and Kinetic Deuterium Isotope Effects Compounds (10 μl of 2 μM solution) are incubated in 200 μl of medium that contains […] rat liver microsomes, NADPH regenerating system (1 mM NADP, 1 unit/ml of isocitrate dehydrogenase, 5 mM isocitric acid, 5 mM magnesium chloride), and 25 mM of phosphate buffer (pH 7.4). The reaction is terminated at different time points (0 to 60 min) by the addition of 300 μl of acetonitrile. For the analyses of products, the precipitated salts and proteins are spun out on a centrifuge, the residual solution diluted with 300 μl of water and injected into the LC/MS (Agilent 1200 system interfaced with an ABS Sciex 4000 QTRAP LC/MS/MS Mass Spectrometer). The metabolic stability may be estimated by evaluating the rate of disappearance of the main parent peak."}, "[2]": {"biological_target": "T1, serotonin 5-HT2A receptor (Mus musculus, UniProt P35363)", "T1 construct": "tissue Jackson Laboratory; host or cells: living C57Bl/6J mice (whole animal, behavioural read-out)", "T1 sequence (P35363 whole entry)": "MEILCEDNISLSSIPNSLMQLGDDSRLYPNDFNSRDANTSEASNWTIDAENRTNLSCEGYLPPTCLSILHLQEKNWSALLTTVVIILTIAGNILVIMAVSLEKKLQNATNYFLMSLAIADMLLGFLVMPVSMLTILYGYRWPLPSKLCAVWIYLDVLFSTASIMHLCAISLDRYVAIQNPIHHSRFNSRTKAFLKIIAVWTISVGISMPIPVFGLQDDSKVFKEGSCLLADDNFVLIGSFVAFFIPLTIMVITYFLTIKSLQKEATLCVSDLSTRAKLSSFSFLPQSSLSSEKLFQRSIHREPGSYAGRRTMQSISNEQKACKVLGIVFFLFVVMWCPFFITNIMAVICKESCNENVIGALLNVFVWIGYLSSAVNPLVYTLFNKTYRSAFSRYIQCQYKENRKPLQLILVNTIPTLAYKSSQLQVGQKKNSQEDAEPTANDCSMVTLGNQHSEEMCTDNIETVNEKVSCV", "assay": "head-twitch response (HTR)", "format": "in vivo, C57Bl/6J mice", "details": "for HTR compared to DOI (positive control, 1 mg/kg) / HTR compared to vehicle: HTRs counted for 15 minutes, adult male mice; for model fit of data (GraphPad Prism 9): FIG. 16 legend", "description": "The HTR assay was performed in adult, male C57Bl/6J mice, procured from the Jackson Laboratory (Bar Harbor, Maine), as previously described (Canal, C. E., and Morgan, D., 2012, Head-twitch response in rodents induced by the hallucinogen 2,5-dimethoxy-4-iodoamphetamine: a comprehensive history, a re-evaluation of mechanisms, and its utility as a model, Drug Test Anal 4, 556-576; Saraf, T. S., Felsing, D. E., Armstrong, J. L., Booth, R. G., and Canal, C. E., 2021, Evaluation of lorcaserin as an anticonvulsant in juvenile Fmr1 knockout mice, Epilepsy Res 175, 106677). Mice were housed in standard laboratory cages with ad libitum access to food and water, and were acclimated to the vivarium for at least one week prior to testing in a procedure room. On the day of testing, mice were acclimated to the procedure room in their home cages for ≥60 mi before administration of test compounds. Mice were injected subcutaneously, placed immediately thereafter in a clear, polycarbonate box (46×20×20 cm), and HTRs were counted for 15 consecutive minutes, using hand-held tally counters, by two trained observers who were blind to treatment."}, "[3]": {"biological_target": "T2, human serotonin 5-HT2A receptor (Homo sapiens, UniProt P28223)", "T2 construct": "host or cells: HEK293 (ATCC CRL-1573), transient transfection, membrane preparation", "T2 sequence (P28223 whole entry)": "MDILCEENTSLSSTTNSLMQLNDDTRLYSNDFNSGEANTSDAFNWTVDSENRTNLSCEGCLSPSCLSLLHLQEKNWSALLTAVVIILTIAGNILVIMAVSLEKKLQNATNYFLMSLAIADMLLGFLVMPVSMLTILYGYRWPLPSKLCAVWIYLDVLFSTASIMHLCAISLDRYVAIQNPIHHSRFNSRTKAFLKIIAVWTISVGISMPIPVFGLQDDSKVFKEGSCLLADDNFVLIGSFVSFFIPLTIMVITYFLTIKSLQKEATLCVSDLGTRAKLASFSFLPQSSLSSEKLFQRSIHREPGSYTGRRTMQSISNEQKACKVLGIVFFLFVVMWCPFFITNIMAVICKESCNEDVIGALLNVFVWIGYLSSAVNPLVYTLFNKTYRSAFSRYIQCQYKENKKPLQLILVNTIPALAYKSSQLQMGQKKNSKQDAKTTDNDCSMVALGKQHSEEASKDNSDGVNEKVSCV", "assay": "radioligand competition binding, [3H]Ketanserin", "details": "HEK293 membranes, [3H]Ketanserin ~1.6 nM", "description": "Radioligand competition binding was performed as previously described (Saraf, T. S., Felsing, D. E., Armstrong, J. L., Booth, R. G., and Canal, C. E., 2021, Evaluation of lorcaserin as an anticonvulsant in juvenile Fmr1 knockout mice, Epilepsy Res 175, 106677), with minor modifications. Plasmids encoding human serotonin 5-HT2A receptor cDNA were procured from the cDNA Resource Center. Human embryonic kidney cells (HEK293, ATCC CRL-1573) were grown in a cell incubator in 100 mm dishes with antibiotic-free Dulbecco's modified Eagle's medium containing 10% fetal bovine serum. Cells were transfected at ˜85% confluency with […] cDNA using TransIT-2020 reagent (Mirus Bio, Madison, Wisconsin). After approximately 48 hours, cell membrane was collected via centrifugation. For all experiments, serotonin (5-HT) hydrochloride was used as a positive control, and mianserin hydrochloride (10 μM) was used to define non-specific binding. Each cell membrane homogenate expressing 5-HT2A receptors was incubated in 96-well plates with [^3H]Ketanserin (PerkinElmer, Waltham, Massachusetts), ˜1.6 nM (its Kd at human 5-HT2A receptors), in the absence or presence of test compounds in a buffer. Following equilibration, each sample was filtered rapidly under vacuum through fiberglass filters presoaked in a buffer and rinsed several times with an ice-cold buffer using a cell harvester. Filters were soaked with scintillation fluid, and counts per minute were detected using photodetectors. IC50 values were computed using nonlinear, least squares regression analyses and then converted to Ki values using the Cheng-Prusoff equation (GraphPad Prism 9.0, San Diego, California)."}, "[4]": {"details": "cited from earlier work"}},
  "data": [
    {"smiles": "[2H]C([2H])([2H])Oc1cc(C([2H])([2H])C([2H])([2H])N)c(OC([2H])([2H])[2H])cc1Br", "note": "[Compound II-14, 2-(4-bromo-2,5-bis(methoxy-d3)phenyl)ethan-1,1,2,2-d4-1-amine]", "values": [
      {"measurement": "half life longer than Reference Compound 2 (2C—B)", "setting": "[1]", "result": 50, "unit": "%"}
    ]},
    {"smiles": "COc1cc(SC(F)(F)F)c(OC)cc1CCN", "note": "[Compound I-1, 2-(2,5-dimethoxy-4-((trifluoromethyl)thio)phenyl)ethan-1-amine]", "values": [
      {"measurement": "HTR compared to DOI (positive control, 1 mg/kg)", "setting": "[2]; 3 mg/kg, subcutaneous", "result": "not statistically different from DOI"},
      {"measurement": "HTR compared to vehicle", "setting": "[2]; 3 mg/kg, subcutaneous", "result": "statistically different from vehicle"},
      {"measurement": "model fit of data (GraphPad Prism 9)", "setting": "[2]", "result": "fit best to a two-site model"},
      {"measurement": "activity at serotonin 5-HT2A receptors (FIG. 17)", "setting": "[3]", "result": "pronounced agonists"},
      {"measurement": "difference in affinity between deuterated and non-deuterated compounds", "setting": "[3]", "result": "no significant differences in affinity"}
    ]},
    {"smiles": "[2H]C([2H])([2H])Oc1cc(SC(F)(F)F)c(OC([2H])([2H])[2H])cc1CCN", "note": "[Compound II-10, 2-(2,5-bis(methoxy-d3)-4-((trifluoromethyl)thio)phenyl)ethan-1-amine]", "values": [
      {"measurement": "effect of deuteration of the 2,5-methoxy groups on HTR (versus Compound I-1)", "setting": "[2]; 3 mg/kg, subcutaneous, 15 minutes", "result": "increased the HTR response"},
      {"measurement": "HTR compared to DOI (positive control, 1 mg/kg)", "setting": "[2]; 3 mg/kg, subcutaneous", "result": "not statistically different from DOI"},
      {"measurement": "HTR compared to vehicle", "setting": "[2]; 3 mg/kg, subcutaneous", "result": "statistically different from vehicle"},
      {"measurement": "model fit of data (GraphPad Prism 9)", "setting": "[2]", "result": "fit best to a two-site model"},
      {"measurement": "activity at serotonin 5-HT2A receptors (FIG. 17)", "setting": "[3]", "result": "pronounced agonists"},
      {"measurement": "difference in affinity between deuterated and non-deuterated compounds", "setting": "[3]", "result": "no significant differences in affinity"}
    ]},
    {"smiles": "COc1cc(OC)c(OC)cc1CCN", "note": "[2C—O]", "values": [
      {"measurement": "activity after oral administration", "setting": "[4]", "result": "inactive"}
    ]}
  ]
}
